Assay results: article PMC7997396 (Cell host & microbe, 2020)

Biological target: mouse Trpa1 (Mus musculus, UniProt Q8BLA8)
Experiment: Ca2+ influx assay in HEK-293T cells transfected with mouse TRPA1
Format: cell-based

mouse Trpa1, sequence (Q8BLA8 whole entry): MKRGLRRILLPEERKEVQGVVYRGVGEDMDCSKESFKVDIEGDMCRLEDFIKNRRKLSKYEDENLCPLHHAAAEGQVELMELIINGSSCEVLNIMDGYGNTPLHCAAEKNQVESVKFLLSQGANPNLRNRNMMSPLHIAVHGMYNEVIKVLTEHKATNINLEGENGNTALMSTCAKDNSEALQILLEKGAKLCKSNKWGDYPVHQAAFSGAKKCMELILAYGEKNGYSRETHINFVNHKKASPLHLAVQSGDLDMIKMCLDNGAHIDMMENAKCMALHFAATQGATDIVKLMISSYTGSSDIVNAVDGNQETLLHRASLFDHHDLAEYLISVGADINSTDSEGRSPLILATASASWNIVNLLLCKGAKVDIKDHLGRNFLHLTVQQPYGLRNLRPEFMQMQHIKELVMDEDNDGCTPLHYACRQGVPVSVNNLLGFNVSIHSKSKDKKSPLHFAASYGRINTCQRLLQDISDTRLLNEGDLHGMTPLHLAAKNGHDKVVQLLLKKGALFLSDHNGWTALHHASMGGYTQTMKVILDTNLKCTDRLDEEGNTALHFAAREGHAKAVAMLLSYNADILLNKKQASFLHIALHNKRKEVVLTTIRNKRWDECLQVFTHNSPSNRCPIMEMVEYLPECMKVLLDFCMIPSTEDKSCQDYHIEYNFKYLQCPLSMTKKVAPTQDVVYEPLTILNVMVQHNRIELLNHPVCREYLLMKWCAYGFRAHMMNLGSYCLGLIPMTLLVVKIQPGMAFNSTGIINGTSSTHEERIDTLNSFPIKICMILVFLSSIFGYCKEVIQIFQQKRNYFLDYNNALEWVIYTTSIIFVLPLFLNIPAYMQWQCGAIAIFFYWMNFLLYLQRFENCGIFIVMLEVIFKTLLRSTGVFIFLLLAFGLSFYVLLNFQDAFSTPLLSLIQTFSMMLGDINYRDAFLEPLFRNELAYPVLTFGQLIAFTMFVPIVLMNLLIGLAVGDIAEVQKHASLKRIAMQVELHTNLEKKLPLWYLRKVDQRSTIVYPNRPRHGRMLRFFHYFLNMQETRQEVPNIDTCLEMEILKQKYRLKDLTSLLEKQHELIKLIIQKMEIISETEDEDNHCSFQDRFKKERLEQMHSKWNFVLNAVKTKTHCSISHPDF

SMILES | Ca2+ influx assay in HEK-293T cells transfected with mouse TRPA1
c1ccc2[nH]ccc2c1 [Indole] | Both indole and IAld also activated mouse Trpa1, but in a less potent manner
O=Cc1c[nH]c2ccccc12 [IAld, Indole-3-carboxaldehyde] | Both indole and IAld also activated mouse Trpa1, but in a less potent manner
